From patent US7199132B2, “Tropane analogs and methods for inhibition of monoamine transport” (Organix, Inc., priority 2001, dated 2007) come the findings set out here.

The target in data set [1] is T1, dopamine transporter (Macaca fascicularis, UniProt Q9GJT6).
T1 construct: The caudate-putamen was dissected from coronal slices and yielded 1.4±0.4 g tissue; Membranes were prepared as described previously; from tissue; host or cells: caudate-putamen membranes of cynomolgus or rhesus monkey brain
T1 sequence (Q9GJT6 whole entry): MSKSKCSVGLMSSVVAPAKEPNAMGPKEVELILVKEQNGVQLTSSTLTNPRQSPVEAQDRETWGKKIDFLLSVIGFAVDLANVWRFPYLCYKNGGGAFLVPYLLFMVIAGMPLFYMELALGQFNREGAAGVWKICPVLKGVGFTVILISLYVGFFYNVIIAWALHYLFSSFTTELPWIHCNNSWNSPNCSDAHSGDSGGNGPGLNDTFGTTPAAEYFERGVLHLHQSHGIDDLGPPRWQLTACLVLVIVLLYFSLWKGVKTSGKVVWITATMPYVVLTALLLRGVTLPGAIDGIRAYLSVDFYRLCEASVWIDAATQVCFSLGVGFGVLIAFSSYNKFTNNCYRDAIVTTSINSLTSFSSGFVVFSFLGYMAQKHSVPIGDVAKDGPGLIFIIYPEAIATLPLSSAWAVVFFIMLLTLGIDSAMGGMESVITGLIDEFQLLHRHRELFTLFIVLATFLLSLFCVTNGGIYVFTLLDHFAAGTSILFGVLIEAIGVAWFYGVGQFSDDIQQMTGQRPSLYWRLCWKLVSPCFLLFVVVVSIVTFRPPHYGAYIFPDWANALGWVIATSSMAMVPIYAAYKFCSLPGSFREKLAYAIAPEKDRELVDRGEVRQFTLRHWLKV
The data set is described as follows: Dopamine transporter assay: inhibition of {3H}WIN 35,428 binding in caudate-putamen membranes. Conditions: for SERT/DAT: selectivity ratio IC50 SERT / IC50 DAT; for IC50: inhibition of {3H}WIN 35,428 binding, mean of 2 or more independent experiments in triplicate. Also on record: species or system rhesus or cynomolgus monkey.

Data set [2] concerns the target T2, serotonin transporter (Macaca mulatta, UniProt Q9MYX0).
T2 construct: The serotonin transporter was assayed in caudate-putamen membranes using conditions similar to those for the dopamine transporter; from tissue; host or cells: caudate-putamen membranes of cynomolgus or rhesus monkey brain
The data set is described as follows: Serotonin transporter assay: inhibition of {3H}citalopram binding in caudate-putamen membranes. Also on record: species or system rhesus or cynomolgus monkey. Conditions: IC50 (nM) SERT, monkey caudate-putamen, mean of 2 or more independent experiments in triplicate.

Where [3] appears, read: IC50 (nM) DAT, monkey caudate-putamen.

Where two headings read alike, the source gives them in different places.

T2 sequence (Q9MYX0 whole entry): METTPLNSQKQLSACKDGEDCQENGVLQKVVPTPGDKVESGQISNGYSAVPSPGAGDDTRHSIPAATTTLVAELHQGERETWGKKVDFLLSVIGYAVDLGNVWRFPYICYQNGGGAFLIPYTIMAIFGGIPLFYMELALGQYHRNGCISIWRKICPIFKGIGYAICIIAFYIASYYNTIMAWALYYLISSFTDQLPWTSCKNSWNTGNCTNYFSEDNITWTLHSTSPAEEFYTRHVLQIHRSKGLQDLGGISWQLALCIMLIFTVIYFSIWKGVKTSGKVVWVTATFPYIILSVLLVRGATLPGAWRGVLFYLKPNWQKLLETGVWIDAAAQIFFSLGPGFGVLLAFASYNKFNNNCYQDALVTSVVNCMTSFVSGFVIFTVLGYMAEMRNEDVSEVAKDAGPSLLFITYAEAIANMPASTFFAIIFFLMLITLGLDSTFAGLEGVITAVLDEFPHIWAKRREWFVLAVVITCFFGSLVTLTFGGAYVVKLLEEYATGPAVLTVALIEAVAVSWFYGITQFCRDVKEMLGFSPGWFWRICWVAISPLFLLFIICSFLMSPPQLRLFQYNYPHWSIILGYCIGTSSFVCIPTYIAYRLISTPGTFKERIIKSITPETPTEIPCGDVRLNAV

For the molecule `COC(=O)C1=C(c2ccc(Cl)c(Cl)c2)C[C@@H]2[C@@H](O)C[C@H]1N2C` (racemic) [Compound 7a, 2-Carbomethoxy-3-(3,4-dichlorophenyl)-6β-hydroxy-8-methyl-8-azabicyclo{3.2.1}oct-2-ene], the melting point (commonly the temperature of the solid-liquid transition) lay within 94 to 96 °C. For the same molecule, in data set [1], the SERT/DAT worked out at 60. In addition, in data set [2], the half-inhibitory concentration (IC50) – broadly, the concentration needed to halve the response being measured – worked out at 3320 nM.
The molecule `COC(=O)C1=C(c2ccc(Cl)c(Cl)c2)C[C@@H]2C[C@@H](O)[C@H]1N2C` (racemic) [Compound 8a, 2-Carbomethoxy-3-(3,4-dichlorophenyl)-7β-hydroxy-8-methyl-8-azabicyclo{3.2.1}oct-2-ene] gave a melting point of 130.4 to 132.4 °C. Also, in data set [2], the IC50 was above 6000 nM.
For the molecule `COC(=O)C1=C(c2ccc(F)cc2)C[C@@H]2C[C@@H](O)[C@H]1N2C` (racemic) [Compound 8c, 2-Carbomethoxy-3-(4-fluorophenyl)-7β-hydroxy-8-methyl-8-azabicyclo{3.2.1}oct-2-ene], the SERT/DAT in data set [1] came to 1. Further, the IC50 in data set [2] is above 10000 nM.
As to `COC(=O)[C@@H]1[C@H]2[C@H](O)C[C@@H](C[C@@H]1c1ccccc1)N2C` (racemic) [Compound 15d, 2β-Carbomethoxy-3β-phenyl-7β-hydroxy-8-methyl-8-azabicyclo{3.2.1}octane], the melting point was in the range of 165.8 to 167.8 °C. The IC50 in data set [2] was above 10000 nM.
Consider `COC(=O)C1=C(c2ccccc2)C[C@@H]2CC[C@H]1N2C` (relative stereo) [Compound 6d, reference compound], for which the SERT/DAT in data set [1] came to 11. This molecule also displayed a half-maximal inhibitory concentration (IC50) in data set [2] of 28600 nM.
In data set [1] (setting [3]), `COC(=O)[C@H]1[C@@H](c2ccccc2)C[C@@H]2CC[C@H]1N2C` (relative stereo) [Compound 13d, reference compound] came in with an IC50 of 65 nM.
In data set [1] (setting [3]), `COC(=O)[C@@H]1[C@H]2CC[C@@H](C[C@H]1c1ccc3ccccc3c1)N2C` (relative stereo) [Compound 16b, reference compound] gave an IC50 of 0.57 nM. In addition, in data set [1], the SERT/DAT is reported as 10.
For the molecule `COC(=O)[C@@H]1[C@H]2CC[C@@H](C[C@H]1c1ccc(F)cc1)N2C` (relative stereo) [Compound 16c, reference compound], the SERT/DAT in data set [1] was found to be 63.
`COC(=O)[C@@H]1[C@H]2C[C@H](O)[C@@H](C[C@H]1c1ccc(Cl)c(Cl)c1)N2C` (relative stereo) [Compound 17a, 2β-Carbomethoxy-3α-(3,4-dichlorophenyl)-6β-hydroxy-8-methyl-8-azabicyclo{3.2.1}octane]: the melting point is 129.1 to 131.1 °C. Besides, the SERT/DAT in data set [1] was found to be 238.
Consider `COC(=O)[C@@H]1[C@H]2C[C@H](O)[C@@H](C[C@H]1c1ccc(F)cc1)N2C` (relative stereo) [Compound 17c, 2β-Carbomethoxy-3α-(4-fluorophenyl)-6β-hydroxy-8-methyl-8-azabicyclo{3.2.1}octane], for which the melting point fell in the range of 148 to 150 °C. Also, in data set [1], the SERT/DAT was determined as 8.
On the same counts, the results for `COC(=O)[C@@H]1[C@H]2C[C@H](O)[C@@H](C[C@H]1c1ccccc1)N2C` (relative stereo) [Compound 17d, 2β-Carbomethoxy-3α-phenyl-6β-hydroxy-8-methyl-8-azabicyclo{3.2.1}octane] are 138 to 140 °C and above 3.
On to `COC(=O)[C@@H]1[C@H]2[C@H](O)C[C@@H](C[C@H]1c1ccc(Cl)c(Cl)c1)N2C` (relative stereo) [Compound 18a, 2β-Carbomethoxy-3α-(3,4-dichlorophenyl)-7β-hydroxy-8-methyl-8-azabicyclo{3.2.1}octane], for which the melting point lay within 148.5 to 150 °C.
Same read-out and setting: the result for `COC(=O)[C@@H]1[C@H]2[C@H](O)C[C@@H](C[C@H]1c1ccccc1)N2C` (relative stereo) [Compound 18d, 2β-Carbomethoxy-3α-phenyl-7β-hydroxy-8-methyl-8-azabicyclo{3.2.1}octane] reads 165 to 167 °C.
In turn, `COC(=O)[C@H]1[C@@H](c2ccc(Cl)c(Cl)c2)C[C@@H]2CC(=O)[C@H]1N2C` (relative stereo) [Compound 19, 2β-Carbomethoxy-3β-(3,4-dichlorophenyl)-8-methyl-8-azabicyclo{3.2.1}oct-7-one] gave a melting point of 84.4 to 86.4 °C. In data set [2], this molecule registered a half-maximal inhibitory concentration (IC50) of 290 nM.
Take `COC(=O)[C@@H]1[C@H]2C[C@@H](O)[C@@H](C[C@H]1c1ccc(Cl)c(Cl)c1)N2C` (relative stereo) [Compound 30a, 2β-Carbomethoxy-3α-(3,4-dichlorophenyl)-6α-hydroxy-8-methyl-8-azabicyclo{3.2.1}octane]: the melting point was in the range of 161.2 to 162.2 °C. In data set [2], this molecule returned an IC50 of 10700 nM.
As for `COC(=O)[C@@H]1[C@H]2[C@@H](O)C[C@@H](C[C@H]1c1ccc(Cl)c(Cl)c1)N2C` (relative stereo) [Compound 30b, 2β-Carbomethoxy-3α-(3,4-dichlorophenyl)-7α-hydroxy-8-methyl-8-azabicyclo{3.2.1}octane], the melting point fell in the range of 121 to 123 °C. In addition, the IC50 in data set [2] was found to be 991 nM.
`COC(=O)[C@@H]1[C@H]2C[C@H](O)[C@@H](C[C@H]1OC(c1ccc(F)cc1)c1ccc(F)cc1)N2C` (relative stereo) [Compound 32a, 2β-Carbomethoxy-3α-bis(4-fluorophenyl)methoxy-6β-hydroxy-8-methyl-8-azabicyclo{3.2.1}octane] showed an IC50 in data set [2] of 4850 nM.
`COC(=O)[C@@H]1[C@H]2[C@H](O)C[C@@H](C[C@H]1OC(c1ccc(F)cc1)c1ccc(F)cc1)N2C` (relative stereo) [Compound 32b, 2β-Carbomethoxy-3α-bis(fluorophenyl)methoxy-7β-hydroxy-8-methyl-8-azabicyclo{3.2.1}octane] had a melting point of 150 to 152 °C. In data set [2], this molecule gave an IC50 of 9560 nM.
Turning to `COC(=O)C1C(c2ccc(Cl)c(Cl)c2)CC2CC(O)C1N2C` (single isomer, unassigned) [(1R)-15a], the figures for the concentration for half-maximal inhibition (IC50) in data set [1] (setting [3]) and in data set [2] were 265 to 2690 nM and 139 nM, respectively. For the same molecule, in data set [1], the SERT/DAT is on record as 0.05.
On to `COC(=O)C1C(c2ccc(Cl)c(Cl)c2)CC2CC(O)C1N2C` (single isomer, unassigned) [(1S)-15a], for which the half-maximal inhibitory concentration (IC50) in data set [1] (setting [3]) was 0.3 to 7.4 nM; in data set [2], 15 nM. The “fold more selective (DAT vs SERT) than 13a” value in data set [1] (compared with 13a) is 25 fold. The SERT/DAT in data set [1] stood at 50.
For `COC(=O)C1C(c2ccc(Cl)c(Cl)c2)CC2CC(O)C1N2C` (single isomer, unassigned) [Compound (1R)-18a], the 50% inhibitory concentration (IC50) in data set [1] (setting [3]) is 265 to 2690 nM.
`COC(=O)C1C(c2ccc(Cl)c(Cl)c2)CC2CC(O)C1N2C` (single isomer, unassigned) [Compound (1S)-18a] displayed an IC50 in data set [1] (setting [3]) of 0.3 to 7.4 nM. For the same molecule, the “fold more selective (DAT vs SERT) than 16a” value in data set [1] (compared with 16a) amounted to 22 fold. The “fold more selective (DAT vs SERT) than (1S)-15a” value in data set [1] (compared with (1S)-15a) is on record as 32 fold.
Turning to `COC(=O)C1=C(c2ccc(Cl)c(Cl)c2)C[C@H]2C[C@H](O)[C@@H]1N2C` [(1R)-8a, (1R)-2-Carbomethoxy-3-(3,4-dichlorophenyl)-7β-hydroxy-8-methyl-8-azabicyclo{3.2.1}oct-2-ene], the IC50 was 265 to 2690 nM in data set [1] (setting [3]) and 1590 nM in data set [2].
For the molecule `COC(=O)C1=C(c2ccc(Cl)c(Cl)c2)C[C@@H]2C[C@@H](O)[C@H]1N2C` [(1S)-8a, (1S)-2-Carbomethoxy-3-(3,4-dichlorophenyl)-7β-hydroxy-8-methyl-8-azabicyclo{3.2.1}oct-2-ene], in data set [2], the IC50 worked out at 5370 nM.
As to `COC(=O)C1=C(c2ccc(Cl)c(Cl)c2)CC2CCC1N2C` (stereo not shown) [Compound 6a, reference compound], the concentration for half-maximal inhibition (IC50) in data set [1] (setting [3]) turned out to be 1.16 nM; in data set [2], 867 nM. Moreover, the SERT/DAT in data set [1] is reported as 747.
Take `COC(=O)C1=C(c2ccc3ccccc3c2)CC2CCC1N2C` (stereo not shown) [Compound 6b, reference compound]: the values for the half-maximal inhibitory concentration (IC50) in data set [1] (setting [3]) and in data set [2] were 2.94 nM and 109 nM, respectively. In addition, the SERT/DAT in data set [1] is given as 37.
For `COC(=O)C1=C(c2ccc(F)cc2)CC2CCC1N2C` (stereo not shown) [Compound 6c, reference compound], the concentration for half-maximal inhibition (IC50) in data set [1] (setting [3]) came out at 408 nM; in data set [2], 7990 nM. Further, the SERT/DAT in data set [1] worked out at 20.
With `COC(=O)[C@H]1[C@@H](c2ccc(Cl)c(Cl)c2)C[C@@H]2CC[C@H]1N2C` [Compound 13a, (1R)-3β-(3,4-di-chlorophenyl)-tropane-2β-carboxylic acid methyl ester, reference compound], the SERT/DAT in data set [1] is recorded as 2. Moreover, in data set [2], the IC50 came out at 2.47 nM.
As to `COC(=O)C1C(c2ccc3ccccc3c2)CC2CCC1N2C` (stereo not shown) [Compound 13b, reference compound], the SERT/DAT in data set [1] stood at 5.
Consider `COC(=O)[C@H]1[C@@H](c2ccc(F)cc2)C[C@@H]2CC[C@H]1N2C` [Compound 13c, (1R)-3β-(4-fluorophenyl)tropane-2β-carboxylic acid methyl ester, reference compound], for which the half-inhibitory concentration (IC50) was determined as 11 nM in data set [1] (setting [3]) and 160 nM in data set [2]. Also, the SERT/DAT in data set [1] amounted to 15.
As for `COC(=O)[C@@H]1[C@H]2CC[C@@H](C[C@H]1c1ccc(Cl)c(Cl)c1)N2C` [Compound 16a, reference compound], the 50% inhibitory concentration (IC50) in data set [1] (monkey caudate-putamen, read-out: IC50 (nM) DAT) was 0.38 nM. For the same molecule, the SERT/DAT in data set [1] came out at 73.
Consider `COC(=O)C1C(c2ccc(Cl)c(Cl)c2)CC2C[C@@H](O)C1N2C` (stereo partly shown) [Compound 33], for which the “potency at the DAT relative to cocaine” value in data set [1] (compared with cocaine) is on record as “almost twice as potent as cocaine”. The molecule further showed a half-inhibitory concentration (IC50) in data set [2] of 533 nM.
Consider `COC(=O)C1C(c2ccccc2)CC2[C@@H](O)CC1N2C` (stereo partly shown) [Compound 34], for which the “inhibition of {3H}WIN 35,428 binding, result in words” value in data set [1] (monkey caudate-putamen) was “inactive”. The molecule further gave an IC50 in data set [2] above 20000 nM.
